Some test systems named below: CCRF-CEM; KM-20L2; 786-0; OVCAR-8; SK-MEL-5; M14; HT-29; OVCAR-5; LOX IMVI; SR; ACHN; SF-295; SK-MEL-2; SN12C; SF-539; OVCAR-3; CAKI-1.
Common to all, as to assay: DTP human tumour cell line panel, 48 h

The source of these data is ChEMBL document CHEMBL1201862, “PubChem BioAssay data set” (2004).

For orientation: GI50 means the concentration at which growth is held to half of that of the control.

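Each compound was tested at five concentrations against cells in 96-well plates for 48 hours. At the GI50, growth is halved.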 The source made the active and inactive calls. No stated cut-off is given here; in the data, active = GI50 up to about 1.1 µM and inactive = higher. Some results are limits rather than exact numbers.

Consider `CCN(CC)C(=S)S` [DITIOCARB SODIUM], for which the GI50 is 0.0443 µM (active) in the assay on CCRF-CEM; 69 µM (inactive) in the assay on KM-20L2; 67.9 µM (inactive) with 786-0; > 56.1 µM (inactive) with OVCAR-8; 1.63 µM (inactive) with SK-MEL-5; 41.7 µM (inactive) in the assay with M14. Moreover, the GI50 with HT-29 is 0.216 µM (active); in the assay with OVCAR-5, > 100 µM (inactive); in the assay on LOX IMVI, > 55.5 µM (inactive); with SR it was 0.0354 µM (active); in the assay with ACHN it was 53.7 µM (inactive); in the assay on SF-295, > 79.6 µM (inactive). In addition, the GI50 with SK-MEL-2 was > 81.1 µM (inactive); with SN12C, > 70 µM (inactive); in the assay with SF-539 it was > 60.4 µM (inactive).
As to `CC1CC[C@@]23CCC4(C)[C@@](C=CC5[C@@]6(C)CCC(=O)C(C)(C)C6CC[C@]54C)(OC2=O)[C@@H]3[C@H]1C` (some centres undefined), the GI50 in the assay with OVCAR-3 is 11.9 µM (inactive); in the assay with CCRF-CEM it was 5.35 µM (inactive); in the assay with KM-20L2, 15.4 µM (inactive); with 786-0, 24.3 µM (inactive); with OVCAR-8, 18.6 µM (inactive); with SK-MEL-5, 4.84 µM (inactive). Besides, the GI50 in the assay on M14 is 21.7 µM (inactive); in the assay on HT-29, 16.4 µM (inactive); in the assay on CAKI-1, 21.5 µM (inactive); with LOX IMVI, 13.8 µM (inactive); with SR, 6.08 µM (inactive); with ACHN, 12 µM (inactive). Further, the GI50 in the assay with SF-295 is 18.8 µM (inactive); in the assay with SN12C, 20.2 µM (inactive); in the assay on SF-539 it was 24.5 µM (inactive).
With `COc1cccc(/C=C/c2cc(OC)c(OC)c(OC)c2)c1`, the GI50 in the assay with OVCAR-3 was 26.8 µM (inactive); in the assay on CCRF-CEM, 33.7 µM (inactive); in the assay with KM-20L2 it was 19.3 µM (inactive); in the assay on 786-0 it was 30.5 µM (inactive); in the assay with OVCAR-8 it was 55.6 µM (inactive); in the assay with SK-MEL-5, 24.8 µM (inactive). The GI50 with M14 was 23.8 µM (inactive); in the assay on HT-29, 34.4 µM (inactive); in the assay with OVCAR-5 it was > 100 µM (inactive); with SR, 35.1 µM (inactive); with ACHN it was 87.5 µM (inactive); in the assay with SK-MEL-2, 62.7 µM (inactive). The GI50 in the assay on SN12C was 52.2 µM (inactive); with SF-539, 24.4 µM (inactive).
With `CC(=O)OCC1OC(N2C(=O)[C@@H](Oc3ccccc3)[C@H]2/C=C/c2ccccc2)C(OC(C)=O)C(OC(C)=O)C1OC(C)=O` (some centres undefined), the GI50 in the assay with OVCAR-3, in the assay with CCRF-CEM, with KM-20L2, in the assay on 786-0, with OVCAR-8 and in the assay with SK-MEL-5 was > 100 µM (inactive) each time. The GI50 with M14, in the assay with HT-29, with OVCAR-5, in the assay with LOX IMVI, in the assay on SR and in the assay on ACHN was > 100 µM (inactive) each time. For the same molecule, the GI50 in the assay on SF-295 was 53.6 µM (inactive); in the assay on SK-MEL-2, > 100 µM (inactive); in the assay on SN12C, > 100 µM (inactive); in the assay on SF-539, > 100 µM (inactive).
Take `COc1ccc(C2c3cc(OC)c(OC)cc3C(Cc3ccc([N+](=O)[O-])cc3)C2c2ccc([N+](=O)[O-])cc2)cc1OC` (centres undefined): the GI50 in the assay with OVCAR-3, in the assay on CCRF-CEM, with KM-20L2, with 786-0, in the assay on OVCAR-8 and in the assay on SK-MEL-5 was > 100 µM (inactive) each time. The GI50 in the assay with M14, with HT-29, with CAKI-1, in the assay with OVCAR-5, in the assay with LOX IMVI and in the assay on ACHN was > 100 µM (inactive) throughout. The GI50 in the assay on SF-295, with SK-MEL-2, in the assay with SN12C and in the assay with SF-539 was > 100 µM (inactive) in each case.
Take `CN1Cc2c(nc(-c3ccc(Br)cc3)c[n+]2[O-])N(C)C1`: the GI50 in the assay with OVCAR-3, in the assay on CCRF-CEM, with KM-20L2, in the assay on 786-0, in the assay on OVCAR-8 and with SK-MEL-5 was > 100 µM (inactive) in each case. Moreover, the GI50 in the assay on M14, with HT-29, in the assay with CAKI-1, in the assay with OVCAR-5, in the assay on SR and with ACHN was > 100 µM (inactive) in each case. The GI50 with SF-295, in the assay with SK-MEL-2, in the assay on SN12C and with SF-539 was > 100 µM (inactive) throughout.
Regarding `COC(=O)CC1C[C@H](C#N)N(C(=O)c2ccccc2)C[C@@H]1CC[N+](=O)[O-]` (some centres undefined), the GI50 with OVCAR-3, in the assay on CCRF-CEM, with KM-20L2, in the assay on 786-0, with OVCAR-8 and with SK-MEL-5 was > 100 µM (inactive) each time. Also, the GI50 in the assay on M14, in the assay with HT-29, in the assay with OVCAR-5, in the assay on LOX IMVI, with SR and with ACHN was > 100 µM (inactive) throughout. Besides, the GI50 in the assay with SF-295 was > 100 µM (inactive); in the assay on SK-MEL-2 it was 0.0546 µM (active); in the assay on SN12C, > 100 µM (inactive); with SF-539, > 100 µM (inactive).
Turning to `COC(CN1C(=O)c2cccc3cccc(c23)C1=O)OC`, the GI50 in the assay with OVCAR-3 was > 100 µM (inactive); with CCRF-CEM, 73.3 µM (inactive); in the assay with KM-20L2, > 100 µM (inactive); in the assay with 786-0, > 100 µM (inactive); in the assay with OVCAR-8, 71 µM (inactive); in the assay on SK-MEL-5 it was 70.1 µM (inactive). For the same molecule, the GI50 in the assay on M14 was > 100 µM (inactive); in the assay on HT-29, > 100 µM (inactive); in the assay with OVCAR-5, > 100 µM (inactive); with LOX IMVI it was 53.5 µM (inactive); with SR it was 40.5 µM (inactive); in the assay with ACHN, 41.5 µM (inactive). Besides, the GI50 was > 100 µM (inactive) in the assay on SF-295, 1.61 µM (inactive) with SK-MEL-2, 41.1 µM (inactive) in the assay on SN12C and 57.7 µM (inactive) in the assay with SF-539.
Consider `COc1ccc2[nH]c3c(C)cc([N+](=O)[O-])c(C)c3c2c1`, for which the GI50 in the assay with OVCAR-3 was 37.8 µM (inactive); in the assay on CCRF-CEM, 17.9 µM (inactive); in the assay with KM-20L2, 47.5 µM (inactive); with 786-0, 21.8 µM (inactive); with OVCAR-8, 23 µM (inactive); in the assay with SK-MEL-5 it was 25.6 µM (inactive). In addition, the GI50 with M14 is 21.1 µM (inactive); in the assay on HT-29, 28.5 µM (inactive); with CAKI-1, 19.4 µM (inactive); in the assay on SR, 17.7 µM (inactive); with ACHN it was 22 µM (inactive); in the assay on SF-295, 41.4 µM (inactive). In addition, the GI50 in the assay on SK-MEL-2 was 20.6 µM (inactive); with SN12C it was 31.3 µM (inactive); in the assay with SF-539 it was 23.7 µM (inactive).
